Here are results for two compounds from patent US7498329B2, “Salt form of dopamine agonist” (Pfizer Inc., priority 2005, dated 2009).

A short description of data set [1]: Hydrate stability under reduced partial pressure (vacuum drying conditions). The format is physicochemical. The note with it: reduced partial pressure at 40° C. An excerpt:
Typically a pharmaceutical hydrate would be expected to dehydrate within a few hours of exposure to 0% RH. […] This is a much higher temperature than would normally be expected for a hydrated salt. Such kinetic stability is desirable for allowing the compound to be successfully milled prior to formulation. • Many hydrates are not stable to the harsh vacuum drying conditions required in the isolation of a pharmaceutical drug product. However, 5-[(2R,5S)-5-methyl-4-propylmorpholin-2-yl]pyridin-2-amine di-S-camsylate monohydrate would be stable in such a process as, upon exposure to reduced partial pressure at 40° C., the hydrate remains down to 10 mbar.

Data set [2] can be described thus: Water sorption / hygroscopicity (Dynamic Vapour Sorption). The format is physicochemical. The procedure:
Water sorption of 5-[(2R,5S)-5-methyl-4-propylmorpholin-2-yl]pyridin-2-amine di-S-camsylate monohydrate) at 30° C. Sorption at 90% RH is 0.316%(w/w) of dry weight. This value relates to non-bound water and is in addition to that involved in the crystal lattice.
Dynamic Vapour Sorption (DVS): Automated Sorption Analyser Model DVS-1. Manufactured by Surface Measurements Systems Ltd. UK. Solid (10-20 mg) is exposed to controlled relative humidity (% RH) environment and the weight change recorded over time. The humidity was stepped from 0 to 90 to 0% RH in 15% RH intervals. A rate of sorption of 0.0005%/min needs to be achieved at each humidity before exposure to the next humidity in the method. When a sample is deliquescent equilibrium sorption is not always achieved.

Data set [3] in a line: Hydrate kinetic stability at 0% RH (isothermal thermogravimetric analysis). The format is physicochemical. The procedure: Isothermal gravimetric analysis of 5-[(2R,5S)-5-methyl-4-propylmorpholin-2-yl]pyridin-2-amine di-S-camsylate monohydrate at 40, 45, 80 and 85° C. Material was held at a selected temperature with a 0% RH flow of nitrogen. 5-[(2R,5S)-5-methyl-4-propylmorpholin-2-yl]pyridin-2-amine di S-camsylate salt dehydrates at 85° C., 0% RH. Many hydrates would be lost at 30° C./0% RH.
ThermoGravimetric Analysis (TGA): Manufactured by TA instruments, model 2950. Approximately 8 mg of the sample was held at analysis temperature in an open pan with 0% RH nitrogen flow for a minimum of 30 min. Results are representative of the kinetic stability of the hydrate over the period of time the sample was exposed.

The target of data set [4] is T1, dopamine D3 receptor (Homo sapiens, UniProt P35462). Briefly: Functional activity at the dopamine D3 receptor (methods of WO 2004/052372). It is filed as cell-based. The protocol:
Activity at the dopamine D3 receptor may be determined using the methods described in WO 2004/052372, which is incorporated herein by reference. […] Selectivity is calculated as the D2 EC50 value divided by the D3 EC50 value.

In data set [5] the target is T1, dopamine D3 receptor. The note with it: according to WO2004/052372; cited from earlier work.

T1 sequence (P35462 whole entry, species assumed): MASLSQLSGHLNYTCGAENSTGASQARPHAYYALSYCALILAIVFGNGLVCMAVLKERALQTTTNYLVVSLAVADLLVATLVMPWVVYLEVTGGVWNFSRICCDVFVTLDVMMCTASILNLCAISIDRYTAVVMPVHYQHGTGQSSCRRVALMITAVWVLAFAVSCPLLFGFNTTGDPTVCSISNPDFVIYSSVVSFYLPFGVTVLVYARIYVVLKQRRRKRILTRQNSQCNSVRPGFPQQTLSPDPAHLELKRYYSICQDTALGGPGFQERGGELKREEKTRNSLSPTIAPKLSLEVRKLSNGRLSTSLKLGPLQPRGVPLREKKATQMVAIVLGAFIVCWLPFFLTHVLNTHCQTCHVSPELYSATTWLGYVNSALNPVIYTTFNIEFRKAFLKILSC

By EC50 is commonly meant the midpoint of the concentration-response curve. The low end stands for greater potency, the high end for weaker potency. On to `CCCN1C[C@@H](c2ccc(N)nc2)OC[C@@H]1C` [5-[(2R,5S)-5-methyl-4-propylmorpholin-2-yl]pyridine-2-amine, di((1S)-10-camphorsulfonate)monohydrate], for which, in data set [1], the “pressure down to which the hydrate remains” value turned out to be 10 mbar. In addition, in data set [2], the deliquescence result is listed as “not deliquescent” and the hygroscopicity result is on record as “non-hygroscopic”. Besides, the water sorption in data set [2] (90% RH, 30° C., non-bound water) is on record as 0.316 %(w/w) of dry weight. For the same compound, the “dehydration of the hydrate” value in data set [3] (after 3.5 hours, 0% relative humidity (RH) at 30° C.) is reported as “does not dehydrate”. Moreover, the “temperature at which the dehydration event was observed” value in data set [3] (heating in a flow of 0% RH (nitrogen)) was determined as 85 °C. In data set [4], the 50% effective concentration (EC50) turned out to be 21 nM. Also, the “selectivity for D3 over D2” value in data set [4] (D2 EC50 value divided by the D3 EC50 value) was found to be 476 fold.

Consider `CCCN1C[C@@H](c2ccc(N)nc2)OC[C@@H]1C` (single isomer, unassigned), for which the deliquescence result in data set [2] is listed as “deliquescent”. Further, the “D3 agonist activity (in words)” value in data set [5] is on record as “selective D3 agonist”.
